Several values for one entry are separate records, joined by “and”; a condition that tells them apart may be missing. Identical values can stand only once. Inconclusive results and toxic doses are left out. How the source made its calls: active means survival T/C of 150% or more; inactive means T/C below 125% in these data.
Tested on: P388 leukemia ip, CD2F1 mice, survival T/C
Test: NCI In Vivo Anticancer Drug Screen. Data for tumor model P388 Leukemia (intraperitoneal) in CD2F1 (CDF1) mice
Details: endpoint: median survival time, higher = longer survival
Method in brief: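 Mice carrying the transplanted tumor received test compound or vehicle. Survival was recorded in each group, and the value is the treated-group measurement divided by that of the vehicle-treated control group.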

[1] = dose: 50.0 mg/kg/injection, schedule: Q01DX009 (ip), vehicle: saline with Tween-80
[2] = dose: 50.0 mg/kg/injection, schedule: Q01DX005 (ip), vehicle: saline + Tween-80 + alcohol
[3] = dose: 100.0 mg/kg/injection, schedule: Q01DX005 (ip), vehicle: saline + Tween-80 + alcohol
[4] = dose: 200.0 mg/kg/injection, schedule: Q01DX005 (ip), vehicle: saline + Tween-80 + alcohol
[5] = dose: 100.0 mg/kg/injection, schedule: Q01DX001 (ip), vehicle: saline with Tween-80
[6] = dose: 200.0 mg/kg/injection, schedule: Q01DX001 (ip), vehicle: saline with Tween-80
[7] = dose: 400.0 mg/kg/injection, schedule: Q01DX001 (ip), vehicle: saline with Tween-80
[8] = dose: 60.0 mg/kg/injection, schedule: Q01DX005 (ip), vehicle: saline with Tween-80
[9] = dose: 120.0 mg/kg/injection, schedule: Q01DX005 (ip), vehicle: saline with Tween-80
[10] = dose: 3.12 mg/kg/injection, schedule: Q01DX009 (ip), vehicle: saline
[11] = dose: 6.25 mg/kg/injection, schedule: Q01DX009 (ip), vehicle: saline

Measured: T/C

COc1cccc2c1C(=O)c1c(O)c3c(c(O)c1C2=O)C[C@@](O)(C(C)=O)C[C@@H]3OC(=O)CCN
inactive: dose: 0.78 mg/kg/injection, schedule: Q01DX009 (ip), vehicle: water 112 % of control | dose: 1.56 mg/kg/injection, schedule: Q01DX009 (ip), vehicle: water 110 % of control | dose: 3.13 mg/kg/injection, schedule: Q01DX009 (ip), vehicle: water 118 % of control | dose: 8.33 mg/kg/injection, schedule: Q01DX009 (ip), vehicle: water 123 % of control | dose: 12.5 mg/kg/injection, schedule: Q01DX009 (ip), vehicle: water 120 % of control | dose: 18.8 mg/kg/injection, schedule: Q01DX009 (ip), vehicle: water 101 % of control | dose: 25.0 mg/kg/injection, schedule: Q01DX009 (ip), vehicle: water 118 % of control

CCOC(=O)C(=O)Nc1ccccc1C#N
inactive: dose: 50.0 mg/kg/injection, schedule: Q01DX009 (ip), vehicle: saline + alcohol 105 % of control | dose: 100.0 mg/kg/injection, schedule: Q01DX009 (ip), vehicle: saline + alcohol 99 % of control | dose: 200.0 mg/kg/injection, schedule: Q01DX009 (ip), vehicle: saline + alcohol 101 % of control

CC(=O)OC(C)(C)/C=C/C(=O)[C@](C)(O)[C@H]1[C@H](O)C[C@@]2(C)[C@@H]3CC=C4[C@@H](C[C@H](O)[C@H](O)C4(C)C)[C@]3(C)C(=O)C[C@]12C
inactive: dose: 5.0 mg/kg/injection, schedule: Q01DX009 (ip), vehicle: saline with Tween-80 107 % of control | dose: 10.0 mg/kg/injection, schedule: Q01DX009 (ip), vehicle: saline with Tween-80 107 % of control | dose: 20.0 mg/kg/injection, schedule: Q01DX009 (ip), vehicle: saline with Tween-80 112 % of control

C/C(=N\NC(=S)Nc1ccc(S(=O)(=O)O)cc1)c1ccccn1
inactive: dose: 50.0 mg/kg/injection, schedule: Q01DX005 (ip), vehicle: Klucel (hydroxypropylcellulose) (HPC) 107 % of control | dose: 50.0 mg/kg/injection, schedule: Q01DX005 (ip), vehicle: suspension in saline 101 % of control | dose: 100.0 mg/kg/injection, schedule: Q01DX005 (ip), vehicle: Klucel (hydroxypropylcellulose) (HPC) 108 % of control | dose: 100.0 mg/kg/injection, schedule: Q01DX005 (ip), vehicle: suspension in saline 105 % of control | dose: 200.0 mg/kg/injection, schedule: Q01DX005 (ip), vehicle: Klucel (hydroxypropylcellulose) (HPC) 106 % of control | dose: 200.0 mg/kg/injection, schedule: Q01DX005 (ip), vehicle: suspension in saline 121 % of control | dose: 400.0 mg/kg/injection, schedule: Q01DX005 (ip), vehicle: Klucel (hydroxypropylcellulose) (HPC) 115 % of control

CCCCCC[C@H]([C@H](C)O)n1cnc2c(N)ncnc21
inactive: dose: 1.56 mg/kg/injection, schedule: Q01DX009 (ip), vehicle: Klucel (hydroxypropylcellulose) (HPC) 100 % of control | dose: 3.12 mg/kg/injection, schedule: Q01DX009 (ip), vehicle: Klucel (hydroxypropylcellulose) (HPC) 100 % of control | dose: 4.0 mg/kg/injection, schedule: Q01DX005 (ip), vehicle: Klucel (hydroxypropylcellulose) (HPC) 100 % of control | dose: 6.25 mg/kg/injection, schedule: Q01DX009 (ip), vehicle: Klucel (hydroxypropylcellulose) (HPC) 98 % of control | dose: 8.0 mg/kg/injection, schedule: Q01DX005 (ip), vehicle: Klucel (hydroxypropylcellulose) (HPC) 102 % of control | dose: 12.5 mg/kg/injection, schedule: Q01DX009 (ip), vehicle: Klucel (hydroxypropylcellulose) (HPC) 105 % of control | dose: 16.0 mg/kg/injection, schedule: Q01DX005 (ip), vehicle: Klucel (hydroxypropylcellulose) (HPC) 100 % of control | dose: 25.0 mg/kg/injection, schedule: Q01DX009 (ip), vehicle: Klucel (hydroxypropylcellulose) (HPC) 105 % of control and 96 % of control | dose: 32.0 mg/kg/injection, schedule: Q01DX005 (ip), vehicle: Klucel (hydroxypropylcellulose) (HPC) 104 % of control | dose: 50.0 mg/kg/injection, schedule: Q01DX009 (ip), vehicle: Klucel (hydroxypropylcellulose) (HPC) 104 % of control and 96 % of control | dose: 64.0 mg/kg/injection, schedule: Q01DX005 (ip), vehicle: Klucel (hydroxypropylcellulose) (HPC) 100 % of control | dose: 100.0 mg/kg/injection, schedule: Q01DX009 (ip), vehicle: Klucel (hydroxypropylcellulose) (HPC) 98 % of control | dose: 200.0 mg/kg/injection, schedule: Q01DX009 (ip), vehicle: Klucel (hydroxypropylcellulose) (HPC) 98 % of control

O=C1C(Cl)=C(n2c(=O)oc3ccccc32)C(=O)c2ccccc21
inactive: [1] 93 % of control | dose: 100.0 mg/kg/injection, schedule: Q01DX009 (ip), vehicle: saline with Tween-80 98 % of control

O=C1CCS(=O)(=O)c2ccccc21
inactive: [1] 100 % of control

Cc1cc(C2(O)CCCc3ccccc32)[n+]([O-])cc1C (stereo unspecified)
inactive: [2] 106 % of control | [3] 104 % of control | [4] 107 % of control

O=c1[nH]c(=O)n(CC(O)CO)cc1/C=C/Br (stereo unspecified)
inactive: [5] 106 % of control | [6] 101 % of control | [7] 100 % of control

CCCCCC/C(CC(SCC)c1ccccc1Cl)=N\NC(N)=S (stereo unspecified)
inactive: [8] 91 % of control | [9] 96 % of control | dose: 240.0 mg/kg/injection, schedule: Q01DX005 (ip), vehicle: saline with Tween-80 91 % of control

Cn1c(=O)c2c(ncn2CCN2CCNCC2)n(C)c1=O
inactive: dose: 50.0 mg/kg/injection, schedule: Q01DX005 (ip), vehicle: distilled water + alcohol 102 % of control | dose: 100.0 mg/kg/injection, schedule: Q01DX005 (ip), vehicle: distilled water + alcohol 100 % of control | dose: 200.0 mg/kg/injection, schedule: Q01DX005 (ip), vehicle: distilled water + alcohol 100 % of control

COc1ccc2[nH]c(C)cc2c1CN
inactive: [10] 113 % of control | [11] 101 % of control | dose: 12.5 mg/kg/injection, schedule: Q01DX009 (ip), vehicle: saline 112 % of control

O=C1C(Cl)=C(Cl)C(=O)N1c1ccc(Br)cc1Br
inactive: dose: 100.0 mg/kg/injection, schedule: Q04DX002 (ip), vehicle: Klucel (hydroxypropylcellulose) (HPC) 105 % of control | dose: 200.0 mg/kg/injection, schedule: Q04DX002 (ip), vehicle: Klucel (hydroxypropylcellulose) (HPC) 105 % of control | dose: 400.0 mg/kg/injection, schedule: Q04DX002 (ip), vehicle: Klucel (hydroxypropylcellulose) (HPC) 100 % of control

CC(C)=CC[P+](CC[P+](CC=C(C)C)(c1ccccc1)c1ccccc1)(c1ccccc1)c1ccccc1
inactive: dose: 6.25 mg/kg/injection, schedule: Q01DX005 (ip), vehicle: saline with Tween-80 98 % of control | dose: 12.5 mg/kg/injection, schedule: Q01DX005 (ip), vehicle: saline with Tween-80 98 % of control

CN(S(=O)(=O)CC(F)(F)F)S(=O)(=O)C(F)(F)F
inactive: dose: 1.56 mg/kg/injection, schedule: Q01DX009 (ip), vehicle: saline 120 % of control | dose: 2.05 mg/kg/injection, schedule: Q01DX009 (ip), vehicle: saline 93 % of control and 97 % of control | [10] 101 % of control and 102 % of control | dose: 4.68 mg/kg/injection, schedule: Q01DX009 (ip), vehicle: saline 102 % of control and 111 % of control | [11] 100 % of control

O=C(NC12OC3CC(CC(C3)O1)O2)NC12OC3CC(CC(C3)O1)O2
inactive: [5] 100 % of control | [6] 100 % of control | [7] 111 % of control

NC(=O)c1ccccc1OC(=O)Nc1ccc(F)cc1
inactive: dose: 15.0 mg/kg/injection, schedule: Q01DX005 (ip), vehicle: saline with Tween-80 101 % of control | dose: 30.0 mg/kg/injection, schedule: Q01DX005 (ip), vehicle: saline with Tween-80 97 % of control | [8] 99 % of control and 103 % of control | [9] 99 % of control

CCc1cc2c(c3c1C(=O)CC3)C(C)(C)CCC2
inactive: [2] 106 % of control | [3] 92 % of control | [4] 97 % of control

Source: PubChem BioAssay AID330 (DTP/NCI, 2004)
